Source: EP2228429A1, “Shading dye and catalyst combination” (Unilever PLC, priority 2009, dated 2010)

Assays:
[1] = Example 2: shading of cotton washed with Persil Colour powder containing acid blue 25, catalyst and hydrogen peroxide (reflectometer, delta E); set-up: key: reflectometer delta E vs cloth washed without added dye or bleach; conditions: 0.3% acid blue 25 in powder, 2.5g/L, 30°C, 30 minutes
Description: Various amounts of catalyst AC and DC were separately added to Persil Colour (TM) washing powder, such that when the powder was dosed at 2.5g/L a 1, 2, 4 and 8 micromolar solution of the catalysts were obtained. Persil Colour is a commercial washing powder containing 5-15% anionic surfactant and non-ionic surfactant, 15-30% zeolite and less than 5% soap, polycarboxylate and phosphate. It also contains enzymes. 0.3% of the dye acid blue 25 was also added to the powder. The so-created powders were used to wash bleach non-mercerised woven cotton at 30°C, for 30 minutes with a liquor to cloth ration of 30:1 and 2.5g/L powder. Various amounts of hydrogen peroxide was added to activate the catalyst. Following the wash the clothes were rinsed dried and the shading on the cloth measured using a reflectometer and expressed as the delta E values relative to cloth washed with Persil Colour without added dye or bleach system.

[2] = Example 3: bleaching of BC1 stain monitor cloth with catalyst AC and hydrogen peroxide (delta E); conditions: pH=10, 0.5g/L LAS, 30°C, 30 minutes
Description: BC1 (fixed tea stain) bleachable stain test monitor cloth was washed in a bicarbonate buffer (pH=10) with 0.5g/L LAS surfactant, a Liquor to Cloth ratio of 60:1, a temperature of 30°C and a wash time of 30 minutes. The experiment was repeated with various levels of catalyst AC and hydrogen peroxide. The final colour of the cloth was measured and expressed as the delta E relative to a clean piece of cotton. Lower values indicate effective bleaching of the stain.

[3] = Example 7: shading of white cotton washed with Persil Colour containing direct violet 51 and bleach system; conditions: 100 ppb direct violet 51, 5g/L Persil Colour, 40°C, 30 minutes
Description: (§1) White non-mercerised cotton sheeting was washed at 40°C in 5g/L Persil Colour for 30 minutes with a liquor to cloth ratio of 60:1. Persil Colour is a zeolite/anionic/non-ionic surfactant based washing powder. Direct Violet 51 was added to the powder such that 100 ppb of direct violet 51 was in the wash liquor.
(§2) The experiment was repeated with the addition of 10 micromolar catalyst with 10 millimolar peroxide and 2 micromolar catalyst with 2 millimolar peroxide. Following rinsing and drying the colour of the cloth was measured relative to a white cotton control cloth washed without addition of direct violet 51.

[4] = Example 7: bleaching of BC1 monitor washed with Persil Colour and bleach system; conditions: no direct violet 51, liquor to cloth ratio 120:1
Description: as §1, §2
The experiment was then repeated using a BC1 model tea bleach monitor and a liquor to cloth ratio of 120:1. For clarity no direct violet 51 was added to the Persil Colour in this case.

[5] = Example 1: bleaching of shading dyes in pH=10 buffer by catalyst AC and hydrogen peroxide, from optical density; conditions: after 30 minutes at 20 °C; for % bleaching (a): (a) 1 micromolar AC, 1 millimolar hydrogen peroxide; for % bleaching (b): (b) 4 micromolar AC, 4 millimolar hydrogen peroxide
Description: A selection of shading dyes, which deposit onto cotton from wash solutions and have varying structures, was made. Solution of these dyes were made in pH=10 buffer such that the optical density at 1 cm was approximately 1. To this solution the catalyst AC was added alongside hydrogen peroxide such that the concentrations were: • (a) 1 micromolar AC, 1 millimolar hydrogen peroxide • (b) 4 micromolar AC, 4 millimolar hydrogen peroxide The optical density of the dye was measured at the beginning of the experiment and after 30 minutes at 20 °C. From these measurements the % of dye bleaching was calculated using the equation % bleaching = 100 x (ODinitial-OD30 minutes)/ODinitial [formula]

[6] = Example 5: dye bleaching in solution at pH=10 by catalyst and peroxide
Text: Bleaching was much slower with […] 2 millimolar peroxide.

[7] = Example 6: take up of hydrophobic shading dyes by polyester in a wash with catalyst and hydrogen peroxide (delta E); conditions: 0.2ppm dye, 1.8g/L powder, 30 minutes at 20°C
Description: White knitted polyester was washed for 30 minutes at 20°C in 1.8g/L of Brihlante™ washng powder (ex Brasil) with a liquor to cloth ration of 100:1. This is a phosphate/anionic surfactant based powder. Various levels of catalyst BC and hydrogen peroxide was added to the wash liquor alongside 0.2ppm of the hydrophobic shading dyes disperse blue 79:1 (azo dye) and solvent violet 13 (anthraquinone dye). The take up of the hydrophobic shading by the polyester was measured as the delta E relative to white cotton and the results shown below.

[8] = Example 4: bleaching of black tea stain on cotton sheeting; conditions: pH=10 solution, 2 micromolar DC and 2 millimolar peroxide; versus control with 2 micromolar Mn(II) and 2 millimolar peroxide
Description: Black tea beverage was created by placing 1 PG Tips pyramid tea bag in 400ml of boiled ultrapure water for 5 minutes. The tea bag was then removed and the beverage cooled to room temperature. Non-mercerised non-fluorescent white cotton sheeting was dipped in the cold tea and removed. The cloth was left to dry for 1 day in the dark, then used for experiments.

[9] = 1 micromolar catalyst, 1 millimolar H2O2, relative to cloth washed without dye or bleach system
[10] = 2 micromolar catalyst, 2 millimolar H2O2
[11] = 4 micromolar catalyst, 4 millimolar H2O2
[12] = 8 micromolar catalyst, 8 millimolar H2O2
[13] = 2 micromolar catalyst, 2 millimolar H2O2, colour relative to white cotton control washed without dye
[14] = 10 micromolar catalyst, 10 millimolar H2O2
[15] = pH=10, 2 micromolar catalyst with 2 millimolar peroxide
[16] = pH=10, 10 micromolar catalyst with 10 millimolar peroxide
[17] = 0 micromolar catalyst, 0 millimolar H2O2
[18] = 1 micromolar catalyst, 1 millimolar H2O2
[19] = 2 millimolar H2O2 without catalyst
[20] = 10 millimolar H2O2 without catalyst

SMILES: COC(=O)C12CN(C(C)CN(C)C)CC(C(=O)OC)(C1=O)C(c1ccccn1)N(C)C2c1ccccn1 (stereo not shown) [AC]
- Delta E [1, 9]: 5.1
- Delta E [1, 10]: 2.0
- Delta E [1, 11]: 0.4
- Delta E [1, 12]: 0.3
- Delta E ([2]; 1 micromolar AC, 1 millimolar H2O2, relative to clean cotton, lower = effective bleaching): 17.0
- Delta E ([2]; 1 micromolar AC, 2 millimolar H2O2): 16.2
- Delta E ([2]; 2 micromolar AC, 1 millimolar H2O2): 15.9
- Delta E ([2]; 2 micromolar AC, 2 millimolar H2O2): 14.6
- White cotton [3, 13]: 1.5
- White cotton [3, 14]: 0.5
- BC1 [4, 10]: 16.5
- BC1 [4, 14]: 10.9

SMILES: Nc1c(N=Nc2ccc([N+](=O)[O-])cc2)c(S(=O)(=O)[O-])cc2cc(S(=O)(=O)[O-])c(N=Nc3ccccc3)c(O)c12.[Na+].[Na+] [Acid black 1]
- % bleaching (a) [5]: 27%
- % bleaching (b) [5]: 53%

SMILES: Nc1c(S(=O)(=O)[O-])cc(Nc2ccccc2)c2c1C(=O)c1ccccc1C2=O.[Na+] [Acid blue 25]
- % bleaching (a) [5]: 66%
- % bleaching (b) [5]: 96%

SMILES: O=S(=O)([O-])c1cccc(N=Nc2ccc(N=Nc3ccc(Nc4ccccc4)c4c(S(=O)(=O)[O-])cccc34)c3ccccc23)c1.[Na+].[Na+] [Acid blue 113]
- % bleaching (a) [5]: 79%
- % bleaching (b) [5]: 99%

SMILES: COC(=O)C12CN(CCN(C)C)CC(C(=O)OC)(C1=O)C(c1ccccn1)N(C)C2c1ccccn1 (stereo not shown) [BC]
- bleaching of Acid blue 25 in solution [6, 15]: much slower
- bleaching of Direct violet 51 in solution [6, 15]: much slower
- bleaching of Acid blue 25 in solution [6, 16]: effectively bleached
- bleaching of Direct violet 51 in solution [6, 16]: effectively bleached

SMILES: COc1cc(N=Nc2c(Br)cc([N+](=O)[O-])cc2[N+](=O)[O-])c(NC(C)=O)cc1N(CCOC(C)=O)CCOC(C)=O [Blue 79:1, disperse blue 79:1]
- Delta E [7, 17]: 2.8
- Delta E [7, 18]: 2.8
- Delta E [7, 14]: 2.3

SMILES: COC(=O)C12CN(CCN3CCOCC3)CC(C(=O)OC)(C1=O)C(c1ccccn1)N(C)C2c1ccccn1 (stereo not shown) [CC]
- bleaching of Acid blue 25 in solution [6, 15]: much slower
- bleaching of Direct violet 51 in solution [6, 15]: much slower
- bleaching of Acid blue 25 in solution [6, 16]: effectively bleached
- bleaching of Direct violet 51 in solution [6, 16]: effectively bleached

SMILES: OO [Catalyst H2O2, hydrogen peroxide]
- Delta E ([2]; 0 micromolar AC, 1 millimolar H2O2 alone): 18.5
- Delta E ([2]; 0 micromolar AC, 2 millimolar H2O2 alone): 18.1
- White cotton [3, 19]: 1.5
- White cotton [3, 20]: 1.4
- BC1 [4, 19]: 19.3
- BC1 [4, 20]: 18.9

SMILES: Oc1cc(-c2ccccn2)nc(-c2ccccn2)c1 [DC]
- Delta E [1, 9]: 12.3
- Delta E [1, 10]: 12.2
- Delta E [1, 11]: 12.0
- Delta E [1, 12]: 11.7
- bleaching of the tea stain [8]: significantly above that of a control solution

SMILES: COc1cc(N=Nc2c(C)cc(C)cc2S(=O)(=O)[O-])c(C)cc1N=Nc1c(S(=O)(=O)[O-])cc2cc(Nc3ccccc3)ccc2c1O.[Na+].[Na+] [Direct violet 51]
- % bleaching (a) [5]: 1%
- % bleaching (b) [5]: 29%

SMILES: COC(=O)C12CN(CCN3CCCC3)CC(C(=O)OC)(C1=O)C(c1ccccn1)N(C)C2c1ccccn1 (stereo not shown) [EC]
- White cotton [3, 13]: 1.5
- White cotton [3, 14]: 0.7
- BC1 [4, 10]: 17.5
- BC1 [4, 14]: 13.1

SMILES: Cc1ccc(Nc2ccc(O)c3c2C(=O)c2ccccc2C3=O)cc1 [Violet 13, solvent violet 13]
- Delta E [7, 17]: 4.0
- Delta E [7, 18]: 1.6
- Delta E [7, 14]: 0.2
